Measurements as given in patent publication US6943174B2, “6,5-Fused bicyclic heterocycles” (Warner-Lambert Company, priority 2000, dated 2005).

Key:
human 15-LO = molecular target: T1, human 15-LO (Homo sapiens, UniProt P16050); test: Human Lysate 15-LO Assay (HUM15LO); assay type: biochemical; settings: 15-LO catalyzed oxidation of linoleic acid, 15 minutes at 4° C.
T1 construct: made in house; host or cells: Sf9 insect cells (baculovirus, Bac-to-Bac)
T1 sequence (P16050 1-662): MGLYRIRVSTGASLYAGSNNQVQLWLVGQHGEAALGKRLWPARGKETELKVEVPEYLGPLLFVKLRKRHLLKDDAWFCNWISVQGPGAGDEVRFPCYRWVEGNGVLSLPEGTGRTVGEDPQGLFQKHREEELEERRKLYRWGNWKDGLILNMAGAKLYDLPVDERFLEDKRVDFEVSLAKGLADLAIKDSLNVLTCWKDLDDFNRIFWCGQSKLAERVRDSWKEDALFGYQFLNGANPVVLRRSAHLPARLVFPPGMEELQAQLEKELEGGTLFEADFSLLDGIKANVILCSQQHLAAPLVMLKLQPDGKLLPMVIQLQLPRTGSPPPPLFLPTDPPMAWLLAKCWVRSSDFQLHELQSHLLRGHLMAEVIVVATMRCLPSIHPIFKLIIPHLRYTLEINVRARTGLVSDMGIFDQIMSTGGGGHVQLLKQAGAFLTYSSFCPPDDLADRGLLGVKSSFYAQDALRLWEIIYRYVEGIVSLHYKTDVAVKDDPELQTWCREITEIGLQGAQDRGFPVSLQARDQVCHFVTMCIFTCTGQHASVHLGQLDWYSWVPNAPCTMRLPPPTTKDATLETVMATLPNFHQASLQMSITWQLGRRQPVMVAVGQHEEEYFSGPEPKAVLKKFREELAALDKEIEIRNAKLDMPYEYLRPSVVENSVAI
Experimental: The HUM15LO assay measures inhibition of 15-LO catalyzed oxidation of linoleic acid to the hydroperoxy fatty acid 13-(S)HPODE, a conjugated diene. In the HUM15LO assay, a test compound was incubated with 15-LO enzyme in the presence of the linoleic acid substrate. For example, a known amount of a compound of the present invention and 100 μL of human 15-LO and 174 μM of linoleic acid in PBS containing 0.2% sodium cholate were incubated for 15 minutes at 4° C. The test reaction was stopped with 100 μL of mobile phase and 10 μL of triethyl phosphite. […] 13-HPODE was quantitated by comparing peak areas of individual samples with those from a standard curve generated using authentic 13-HODE. The test reaction was compared to a control reaction, which is identical to the test reaction except a test compound is not present. Percent inhibition was calculated as […], expressed as a percent.
Human 15-LO was generated in a recombinant 15-lipoxygenase bacculovirus expression system, using Gibco/BRL/Life Technologies' Bac-to-Bac expression reagents; T4 DNA ligase, Kanamycin, Gentamicin, tetracycline, penicillin, streptomycin, Bluo-gal, IPTC; DH10Bac competent cells, SOC, LB medium, Sf-900 II SFM media, Sf9 insect cells, Cell Fectin, and EcoRI, BamHI, and KpnI restriction enzymes.

COc1ccc(-c2nc3cccnc3[nH]2)cc1N [Chemical Example 1, 5-(3H-imidazo[4,5-b]pyridin-2-yl)-2-methoxy-phenylamine]
inhibition (human 15-LO; at 10 μM): 39%

COc1ccc(-c2nc3cccnc3[nH]2)cc1NS(=O)(=O)c1cccs1 [Chemical Example 2, Thiophene-2-sulfonic acid [5-(3H-imidazo[4,5-b]pyridin-2-yl)-2-methoxy-phenyl]-amide]
IC50 (human 15-LO): 10 µM | melting point: 252 to 254 °C
